This is an account of results in patent US9314024B2, “Herbicidal compositions comprising aminopyralid and bentazon” (Dow AgroSciences LLC, priority 2012, dated 2016).

Common to all, as to assay: Postemergence herbicidal activity, field trial in rice, Espinal, Colombia
What all share (conditions): 29 DAA, postemergence foliar

Assay [1] has as its system Corchorus spp (jute, CRGSS). Format: in vivo, Corchorus sp. Here is the method:
(§1) These trials were conducted under field conditions in Espinal, Colombia. Trial sites were located in commercially grown fields of common rice (Oryza sativa). The rice crop was grown using normal cultural practices for fertilization, seeding, and maintenance to ensure good growth of the crop and the weeds. The trials were conducted using normal research methodology. Trial plots were 2 meters (m) wide by 5 m long. All treatments were applied using a randomized complete block trial design with 4 replications per treatment. The trial sites had naturally occurring populations of weeds. The weed spectrum included, but was not limited to, Cyperus iria L. (rice flatsedge, CYPIR), Phyllanthus niruri L. (gripeweed, PYLNI) and Corchorus spp (jute, CRGSS). The plots were treated with a postemergence foliar application 19 days after emergence of the rice.
(§2) Treatments consisted of tank mixes of aminopyralid triisopropanolammonium salt (MILESTONE 240SL) and commercially available formulations of bentazon herbicide (BASAGRAN 480SL). The application volume was 200 liters per hectare (L/ha) of water. All application were made using precision gas hand sprayers with a 2 m boom using flat fan (8002) nozzles to broadcast the treatments over the top of the rice and weeds.
(§3) The treated plots and control plots were rated blind at various intervals after application. Ratings were based on Percent (%) Visual weed control, where 0 corresponds to no injury and 100 corresponds to complete kill.
(§4) Colby's equation was used to determine the herbicidal effects expected from the mixtures (Colby, S. R. Calculation of the synergistic and antagonistic response of herbicide combinations. Weeds 1967 15, 20-22).
(§5) The following equation was used to calculate the expected activity of mixtures containing two active ingredients, A and B: Expected=A+B−(A×B/100)
(§6) A=observed efficacy of active ingredient A at the same concentration as used in the mixture;
(§7) B=observed efficacy of active ingredient B at the same concentration as used in the mixture.

For assay [2], the system named is Phyllanthus niruri L. (gripeweed, PYLNI). Format: in vivo. Here is the method:
as §1, §2, §3, §4, §5, §6, §7

Assay [3] has as its system Cyperus iria L. (rice flatsedge, CYPIR). Format: in vivo. Here is the method:
as §1, §2, §3, §4, §5, §6, §7

For `Nc1cc(Cl)nc(C(=O)O)c1Cl` [Aminopyralid, 4-amino-3,6-dichloro-2-pyridinecarboxylic acid], the “Visual Weed Control (%) CRGSS Obs” value stood at 48% in assay [1] (aminopyralid 4 g ae/ha alone) and 70% in assay [1] (aminopyralid 8 g ae/ha alone). Also, the “Visual Weed Control (%) PYLNI Obs” value in assay [2] (aminopyralid 4 g ae/ha alone), in assay [2] (aminopyralid 8 g ae/ha alone) and in assay [2] (aminopyralid 16 g ae/ha alone) was 0% throughout. The “Visual Weed Control (%) CYPIR Obs” value worked out at 0% in assay [3] (aminopyralid 4 g ae/ha alone), 0% in assay [3] (aminopyralid 8 g ae/ha alone) and 41% in assay [3] (aminopyralid 16 g ae/ha alone).

With `CC(C)N1C(=O)c2ccccc2NS1(=O)=O` [Bentazon, 3-(1-methylethyl)-1H-2,1,3-benzothiadiazin-4(3H)-one 2,2-dioxide], the “Visual Weed Control (%) CRGSS Obs” value in assay [1] (bentazon 180 g ai/ha alone) is listed as 80%. Besides, the “Visual Weed Control (%) PYLNI Obs” value in assay [2] (bentazon 180 g ai/ha alone) came to 19%. Also, the “Visual Weed Control (%) CYPIR Obs” value in assay [3] (bentazon 180 g ai/ha alone) is 74%.
